The record followed here is US20250040549A1, “FUNGICIDAL COMPOSITIONS” (SYNGENTA CROP PROTECTION AG, priority 2021, published 2025).

For one test, the system named is Alternaria solani. Put plainly: Alternaria solani growth inhibition in nutrient broth, microtiter plate. Type of test: cell-based. To be noted: alone, 48 hrs. The method, then:
Alternaria solani (Early Blight Tomato/Potato): Conidia of the fungus from cryogenic storage were directly mixed into nutrient broth (PDB potato dextrose broth). A DMSO solution of the test compounds was placed into a microtiter plate (96-well format) and the nutrient broth containing the fungal spores was added to it. The test plates were incubated at 24 C and the inhibition of growth was determined photometrically after 48 hrs.

Another test concerns Botrytis cinerea. Put plainly: Botrytis cinerea growth inhibition in nutrient broth, microtiter plate. The note with it: alone, 72 hrs. In kind it is cell-based. How it is done:
Botrytis cinerea (Gray Mould): Conidia of the fungus from cryogenic storage were directly mixed into nutrient broth ([…] potato dextrose broth). A DMSO solution of the test compounds was placed into a microtiter plate (96-well format) and the nutrient broth containing the fungal spores was added to it. The test plates were incubated at 24 C and the inhibition of growth was determined photometrically after 72 hrs.

In test [1] the test system is Glomerella Lagenarium Syn. Colletotrichum lagenarium. Put plainly: Glomerella lagenarium growth inhibition in nutrient broth, microtiter plate. Type of test: cell-based. To be noted: alone, 72 hrs. How it is done: Glomerella Lagenarium Syn. Colletotrichum lagenarium (Anthracnose of Cucurbits): Conidia of the fungus from cryogenic storage were directly mixed into nutrient broth (PDB potato dextrose broth). A DMSO solution of the test compounds was placed into a microtiter plate (96-well format) and the nutrient broth containing the fungal spores was added to it. The test plates were incubated at 24 C and the inhibition of growth was determined photometrically after 72 hrs at 620 nm.

Test [2] has as its system Mycosphaerella arachidis Syn. Cercospora arachidicola. Nature of the test: Mycosphaerella arachidis growth inhibition in nutrient broth, microtiter plate. In kind it is cell-based. The note with it: alone, 5-6 days. How it is done: Mycosphaerella arachidis Syn. Cercospora arachidicola (Brown Leaf Spot of Peanut): Conidia of the fungus from cryogenic storage were directly mixed into nutrient broth (PDB potato dextrose broth). A DMSO solution of the test compounds was placed into a microtiter plate (96-well format) and the nutrient broth containing the fungal spores was added to it. The test plates were incubated at 24 C and the inhibition of growth was determined photometrically after 5-6 days at 620 nm

The subject of test [3] is Phakopsora pachyrhizi (Asian soybean rust). Nature of the test: Phakopsora pachyrhizi on leaf disks from sprayed soybean plants. To be noted: alone, 11 to 14 days after inoculation; for inhibition at 1 g/ha: 1 g ai/ha. Type of test: in vivo. The method, then:
Phakopsora Pachyrhizi (Soybean Rust):
Whole soybean plants are treated with the recited active ingredients 4 weeks after planting. 1 day after spraying leaf disks are cut from the first trifoliate leaf. Five repetitions at each rate are conducted. The leaf disks are inoculated with Phakopsora pachyrhizi (Asian soybean rust) one day after treatment. Evaluation of the leaf disks is conducted 11 to 14 days after inoculation and the activity is derived from the relation of the treated vs untreated, infested check. The rates of the active ingredients used are given in Table as g active ingredient (a.i.)/ha.

The next test concerns Sclerotinia sclerotiorum. Nature of the test: Sclerotinia sclerotiorum growth inhibition in nutrient broth, microtiter plate. In kind it is cell-based. The note with it: alone, 72 hrs. How it is done:
Sclerotinia sclerotiorum (Cottony Rot, White Mold, Etc.): Mycelial fragments of the fungus prepared from a fresh liquid culture were directly mixed into nutrient broth (PDB potato dextrose broth). A DMSO solution of the test compounds was placed into a microtiter plate (96-well format) and the nutrient broth containing the fungal spores was added to it. The test plates were incubated at 24 C and the inhibition of growth was determined photometrically after 72 hrs at 620 nm.

The subject of the next test is Septoria tritici. Nature of the test: Septoria tritici growth inhibition in nutrient broth, microtiter plate. To be noted: alone, 72 hrs. In kind it is cell-based. The method, then: Septoria tritici (Leaf Blotch): Conidia of the fungus from cryogenic storage were directly mixed into nutrient broth (PDB potato dextrose broth). A DMSO solution of the test compounds was placed into a microtiter plate (96-well format) and the nutrient broth containing the fungal spores was added to it. The test plates were incubated at 24 C and the inhibition of growth was determined photometrically after 72 hrs.

[4] abbreviates: Phakopsora pachyrhizi, foliar, read-out: Observed Activity (%).

As for `COC(=O)NCc1cc(-c2ccn(-c3c(F)cc(C(C)C)cc3F)n2)ccc1C` [Compound A-1.1, Methyl N-[[5-[1-(2,6-difluoro-4-isopropyl-phenyl)pyrazol-3-yl]-2-methyl-phenyl]methyl]carbamate], the “Observed Activity (%)” value with Alternaria solani (0.005 g ai/ha) was 0%; with Botrytis cinerea (0.005 g ai/ha) it was 0%; in test [1] (0.001 g ai/ha) it was 0%; in test [1] (0.005 g ai/ha), 0%; in test [2] (0.001 g ai/ha), 0%; in test [2] (0.005 g ai/ha), 20%. Besides, the “Observed Activity (%)” value in the test with Sclerotinia sclerotiorum (0.001 g ai/ha) is 0%; in the test with Sclerotinia sclerotiorum (0.005 g ai/ha) it was 0%; with Septoria tritici (0.001 g ai/ha), 20%. Further, the inhibition at 1 g/ha in test [3] (setting [4]) came to 0%.

As to `COC(=O)NCc1cc(-c2ccn(-c3c(F)cc(C4CC4)cc3F)n2)ccc1C` [Compound A-1.3, methyl N-[[5-[1-(4-cyclopropyl-2,6-difluoro-phenyl)pyrazol-3-yl]-2-methyl-phenyl]methyl]carbamate], the “Observed Activity (%)” value with Alternaria solani (0.005 g ai/ha) came out at 20%; with Alternaria solani (0.01 g ai/ha) it was 50%; with Botrytis cinerea (0.005 g ai/ha) it was 0%; in test [1] (0.001 g ai/ha), 0%; in test [1] (0.005 g ai/ha), 0%; in test [2] (0.001 g ai/ha), 0%. In addition, the “Observed Activity (%)” value is on record as 50% in test [2] (0.005 g ai/ha), 0% in the test with Sclerotinia sclerotiorum (0.001 g ai/ha), 0% in the test on Sclerotinia sclerotiorum (0.005 g ai/ha) and 50% in the test with Septoria tritici (0.001 g ai/ha). Besides, the inhibition at 0.5 g/ha in test [3] (Phakopsora pachyrhizi, foliar, 0.5 g ai/ha, read-out: Observed Activity (%)) worked out at 0%. For the same compound, in test [3] (setting [4]), the inhibition at 1 g/ha worked out at 2%.

On to `O=C(Nc1ccccc1F)c1ccc(-c2noc(C(F)(F)F)n2)cc1` [Flufenoxadiazam, flufenoxadiazam], for which the “Observed Activity (%)” value came out at 0% with Alternaria solani (2.22 g ai/ha); 0% in the test on Alternaria solani (6.66 g ai/ha); 0% with Alternaria solani (20 g ai/ha); 0% in test [3] (0.25 g ai/ha); 10% in test [3] (0.5 g ai/ha).

With `CCC(=O)Oc1c(OC)ccnc1C(=O)N[C@@H](C)C(=O)O[C@@H](C)[C@@H](C)c1ccccc1C` [Metarylpicoxamid, metarylpicoxamid], the “Observed Activity (%)” value turned out to be 0% with Alternaria solani (0.074 g ai/ha); 20% with Alternaria solani (0.22 g ai/ha); 50% in the test on Alternaria solani (0.66 g ai/ha); 0% in the test with Botrytis cinerea (0.0246 g ai/ha); 20% in the test with Botrytis cinerea (0.074 g ai/ha); 50% with Botrytis cinerea (0.22 g ai/ha). Moreover, the “Observed Activity (%)” value in test [1] (0.22 g ai/ha) stood at 0%; in test [1] (0.66 g ai/ha), 0%; in test [1] (2 g ai/ha), 70%; in test [2] (0.0080 g ai/ha), 20%; in test [2] (0.0246 g ai/ha), 50%; in test [3] (0.25 g ai/ha) it was 0%. Also, the “Observed Activity (%)” value in test [3] (0.5 g ai/ha) turned out to be 34%; with Sclerotinia sclerotiorum (2 g ai/ha) it was 50%; with Septoria tritici (0.008 g ai/ha), 20%; in the test with Septoria tritici (0.0246 g ai/ha) it was 50%; in the test on Septoria tritici (0.074 g ai/ha) it was 70%.
